Like-named read-outs stand apart in the source and are kept apart here. Ends that are not written are not given here.
Columns and labels:
[1] = tested on: A/California/04/09/H1N1 pandemic strain (Cal09); type: cell-based, influenza A virus
[2] = tested on: hemagglutination activity of Phil82 IAV; assay: Hemagglutination (HA) inhibition assay; type: biochemical, influenza A virus; conditions: concentrations up to 12μM, three experiments, human type O red cells
Experimental: HA inhibition was measured by serially diluting LL-37 peptides in round bottom 96 well plates (Serocluster U-Vinyl plates; Costar, Cambridge, MA) using PBS as a diluent and human type O red cells as described. 40 HA units of virus was used in the assay.

NA activity of Cal09 = type: biochemical, influenza A virus
HBTE cells = assay: LDH assay of cell viability, HBTE cells; type: cell-based, human; conditions: 24 hrs, mean±SEM of 3 or 4 experiments
NY01 = type: cell-based, influenza A virus
[3] = tested on: Mex 1:7 (HA gene of A/Mexico/4108/09/H1N1 with the other 7 genes of NY01); type: cell-based, influenza A virus
[4] = tested on: neuraminidase (NA) activity of Phil82; type: biochemical, influenza A virus
[5] = tested on: Mex 2:6 (HA and NA of A/Mexico/09/H1N1, other genes of NY01); type: cell-based, influenza A virus
[6] = tested on: A/Philippines/2/82/H3N2 (Phil82); type: cell-based, influenza A virus; conditions: for IC50: read-out: approximate 50% viral neutralizing concentration
Cal09 = type: cell-based, influenza A virus
MDCK cells = assay: LDH assay of cell viability, MDCK cells; type: cell-based, canine; conditions: peptide 12.8 μM, 24 hrs, mean±SEM of 3 or 4 experiments
Experimental: The LDH assay was performed using LDH cytoxicity detection kit (Clontech, CA, USA) according to the manufacturer’s instructions. In brief, MDCK cells were incubated with Phil82 IAV (with or without LL-37 and related peptides). Cells were also incubated with peptides alone. The incubation time (24 hrs) and assay conditions were exactly same as in fluorescent focus assays. The LDH activity was measured after the 24 hrs incubation of cells with IAV and/or peptides. Controls included uninfected/untreated cells as negative control (NC) and cells treated with lysis solution as positive control (PC). The percent cytotoxicity is obtained from OD values using the formula: [(Sample OD—NC OD) ÷ (PC OD—NC OD)] ×100

[7] = tested on: A/New York/312/01/H1N1 (NY01) seasonal strain; type: cell-based, influenza A virus
[8] = tested on: A/California/04/09/H1N1 pandemic strain (Cal09); type: cell-based, influenza A virus; remark: listed apart in the source
[9] = tested on: A/California/04/09/H1N1 pandemic strain (Cal09); type: cell-based, influenza A virus; remark: listed apart in the source
A/PR/8/34/H1N1 (PR-8) = type: cell-based, influenza A virus
[10] = HBTE no IAV, peptide 12.8 μM, LL-23V9 n = 1, * significantly reduced vs control
[11] = HBTE+IAV (Phil82), peptide 12.8 μM, LL-23V9 n = 1, * significantly reduced vs control
[12] = read-out: approximate 50% viral neutralizing concentration

Row | Compound | effect on replication, in words [1] | inhibition of hemagglutination activity [2] | % Viability of MDCK or HBTE Cells (HBTE cells; [10]) | % Viability of MDCK or HBTE Cells (HBTE cells; [11]) | antiviral (neutralizing) activity, in words [6] | % Viability of MDCK or HBTE Cells (MDCK cells; MDCK no IAV) [%] | % Viability of MDCK or HBTE Cells (MDCK cells; MDCK+IAV (Phil82)) [%] | effect on infectivity, in words [8] | effect on infectivity, in words [9] | also measured
1 | CC[C@H](C)[C@H](NC(=O)[C@H](CCCCN)NC(=O)[C@H](CCC(=O)O)NC(=O)[C@H](CCCCN)NC(=O)[C@H](CO)NC(=O)[C@H](CCCCN)NC(=O)[C@H](CCCNC(=N)N)NC(=O)[C@H](Cc1ccccc1)NC(=O)[C@H](Cc1ccccc1)NC(=O)[C@H](CC(=O)O)NC(=O)CNC(=O)[C@H](CC(C)C)NC(=O)[C@@H](N)CC(C)C)C(=O)NCC(=O)N[C@@H](CCCCN)C(=O)N[C@@H](CCC(=O)O)C(=O)N[C@@H](Cc1ccccc1)C(=O)N[C@@H](CCCCN)C(=O)N[C@@H](CCCNC(=N)N)C(=O)N[C@H](C(=O)N[C@H](C(=O)N[C@@H](CCC(N)=O)C(=O)N[C@@H](CCCNC(=N)N)C(=O)N[C@H](C(=O)N[C@@H](CCCCN)C(=O)N[C@@H](CC(=O)O)C(=O)N[C@@H](Cc1ccccc1)C(=O)N[C@@H](CC(C)C)C(=O)N[C@@H](CCCNC(=N)N)C(=O)N[C@@H](CC(N)=O)C(=O)N[C@@H](CC(C)C)C(=O)N[C@H](C(=O)N1CCC[C@H]1C(=O)N[C@@H](CCCNC(=N)N)C(=O)N[C@H](C(=O)N[C@@H](CCC(=O)O)C(=O)N[C@@H](CO)C(=O)O)[C@@H](C)O)C(C)C)[C@@H](C)CC)C(C)C)[C@@H](C)CC [LL-37, reference compound] | only slight inhibition at intermediate doses of LL-37 and actual enhancement of the replication of this strain at higher doses | No inhibition was observed | 57±6* % | 55±6* % | clear dose-related antiviral activity | 92±11 | 99±12 |  |  | inhibition of NA activity, in words (NA activity of Cal09): did not inhibit NA activity; % Viability of MDCK or HBTE Cells (HBTE cells; HBTE no IAV, peptide 6.4 μM): 95±2%; % Viability of MDCK or HBTE Cells (HBTE cells; HBTE+IAV (Phil82), peptide 3.2 μM): 105±4%; % Viability of MDCK or HBTE Cells (HBTE cells; HBTE+IAV (Phil82), peptide 6.4 μM): 91±4%; concentrations that significantly decreased viral RNA in supernatants and cells (NY01): ≥ 0.4 µM; viral RNA at 24 hrs after infection, in words (NY01): significant reduction in RNA of NY01 in both cells and supernatant; viral uptake by MDCK cells (viral M protein RNA), in words (NY01): significant reduction of uptake; effect on replication, in words [3]: inhibited at all concentrations tested; inhibition of NA activity, in words [4]: neither LL-37 nor the related peptides inhibited NA activity; effect on replication, in words [5]: inhibited by LL-37 at the lower concentration of 2.2μM but higher concentrations of LL-37 were not inhibitory; IC50 [6]: ~2 µg/mL; viral RNA at 24 hrs after infection, in words (Cal09): trend to increase of Cal09 in the cells in presence of LL-37 but this was again highly variable and not statistically significant; viral uptake by MDCK cells (viral M protein RNA in cell lysate), in words (Cal09): no significant difference in viral uptake; effect on replication, in words [7]: clear dose related inhibition
2 | CCOC(=O)C1=C[C@@H](OC(CC)CC)[C@H](NC(C)=O)[C@@H](N)C1 [Oseltamivir] |  |  |  |  |  |  |  |  |  | inhibition of NA activity, in words [4]: marked reduction of NA activity
3 | CRAMP [reference compound] | did not significantly inhibit |  |  |  |  |  |  |  |  | effect on replication, in words [3]: inhibited (albeit modestly); effect on replication, in words [5]: did not significantly inhibit; effect on replication, in words [7]: inhibited (albeit modestly)
4 | GIKEFKRIVQRIKDFLRNLV-NH2 [GI-20] | significant inhibition | No inhibition was observed | 103±3% | 104±3% | approached or equaled that of full length LL-37 | 103±7 | 107±3 | significant inhibition | significant inhibition | 
5 | HNP-1: the human defensin HNP-1 (human neutrophil peptide), purchased from Bachem [reference compound] | did inhibit Cal09 |  |  |  |  |  |  |  |  | 
6 | LLGDFFRKSKEKIGKEFKRIVQR [LL-23] | modest but statistically significant inhibition | No inhibition was observed | 98±1% | 98±3% | slight antiviral activity | 105±4 | 101±11 | without activity | without activity | approximate 50% viral neutralizing concentration (A/PR/8/34/H1N1 (PR-8)): >32μg/ml (>11.3 μM); IC50 (A/PR/8/34/H1N1 (PR-8); [12]): > 11.3 µM; approximate 50% viral neutralizing concentration [6]: >32μg/ml (>11.3 μM); IC50 [6]: > 11.3 µM; approximate 50% viral neutralizing concentration [7]: >32μg/ml (>11.3 μM); IC50 [7, 12]: > 11.3 µM
7 | LLGDFFRKVKEKIGKEFKRIVQR [LL-23V9] | modest but statistically significant inhibition | No inhibition was observed | 103% | 99% | significantly increased activity compared to LL-23 | 112±6 | 108±7 | without activity | without activity | 

From article PMC4409069 (PLoS ONE, 2015)
